± gives the expanded uncertainty stated by the source. Each block holds one molecule with its values, some of them ahead of it.
What was measured:
[1] = activity coefficient (dimensionless); of the first substance listed, at infinite dilution; xn = mol fraction of the nth substance listed; conditions: Liquid, Chromatography, x1 = 0
[2] = 101.33 kPa, Liquid, Vibrating tube method

Structure (SMILES): CCC(=O)CC [pentan-3-one] + CCn1cc[n+](C)c1.N#C[B-](C#N)(C#N)C#N
activity coefficient ([1]; 308.15 K): 0.798 ± 0.052 | activity coefficient ([1]; 318.15 K): 0.821 ± 0.053 | activity coefficient ([1]; 328.15 K): 0.842 ± 0.054 | activity coefficient ([1]; 338.15 K): 0.861 ± 0.055 | activity coefficient ([1]; 348.15 K): 0.883 ± 0.056 | activity coefficient ([1]; 358.15 K): 0.771 ± 0.05

Structure (SMILES): CCCCCCC [heptane] + CCn1cc[n+](C)c1.N#C[B-](C#N)(C#N)C#N
activity coefficient ([1]; 298.15 K): 53.4 ± 3.7 | activity coefficient ([1]; 308.15 K): 47.9 ± 3.3 | activity coefficient ([1]; 318.15 K): 44.1 ± 3 | activity coefficient ([1]; 328.15 K): 39.9 ± 2.7 | activity coefficient ([1]; 338.15 K): 36.7 ± 2.5 | activity coefficient ([1]; 348.15 K): 34.3 ± 2.3 | activity coefficient ([1]; 358.15 K): 31.7 ± 2.2

Structure (SMILES): C#CCCCCC [1-heptyne] + CCn1cc[n+](C)c1.N#C[B-](C#N)(C#N)C#N
activity coefficient ([1]; 298.15 K): 5.74 ± 0.39 | activity coefficient ([1]; 308.15 K): 5.66 ± 0.39 | activity coefficient ([1]; 318.15 K): 5.58 ± 0.38 | activity coefficient ([1]; 328.15 K): 5.51 ± 0.38 | activity coefficient ([1]; 338.15 K): 5.45 ± 0.37 | activity coefficient ([1]; 348.15 K): 5.39 ± 0.37 | activity coefficient ([1]; 358.15 K): 5.33 ± 0.36

Structure (SMILES): Cc1cccc(C)c1 [1,3-dimethylbenzene] + CCn1cc[n+](C)c1.N#C[B-](C#N)(C#N)C#N
activity coefficient ([1]; 308.15 K): 2.56 ± 0.17 | activity coefficient ([1]; 318.15 K): 2.58 ± 0.18 | activity coefficient ([1]; 328.15 K): 2.6 ± 0.18 | activity coefficient ([1]; 338.15 K): 2.61 ± 0.18 | activity coefficient ([1]; 348.15 K): 2.63 ± 0.18 | activity coefficient ([1]; 358.15 K): 2.64 ± 0.18

Structure (SMILES): CCO [ethanol] + CCn1cc[n+](C)c1.N#C[B-](C#N)(C#N)C#N
activity coefficient ([1]; 298.15 K): 1.58 ± 0.1 | activity coefficient ([1]; 308.15 K): 1.43 ± 0.09 | activity coefficient ([1]; 318.15 K): 1.32 ± 0.09 | activity coefficient ([1]; 328.15 K): 1.21 ± 0.08 | activity coefficient ([1]; 338.15 K): 1.13 ± 0.07 | activity coefficient ([1]; 348.15 K): 1.05 ± 0.07 | activity coefficient ([1]; 358.15 K): 0.986 ± 0.062

Continued, values first:

activity coefficient ([1]; 298.15 K): 7.25 ± 0.49 | activity coefficient ([1]; 308.15 K): 6.92 ± 0.47 | activity coefficient ([1]; 318.15 K): 6.67 ± 0.45 | activity coefficient ([1]; 328.15 K): 6.44 ± 0.44 | activity coefficient ([1]; 338.15 K): 6.17 ± 0.42 | activity coefficient ([1]; 348.15 K): 6.01 ± 0.41 | activity coefficient ([1]; 358.15 K): 5.81 ± 0.4
Structure (SMILES): C1=CCCCC1 [cyclohexene] + CCn1cc[n+](C)c1.N#C[B-](C#N)(C#N)C#N

activity coefficient ([1]; 298.15 K): 0.938 ± 0.059 | activity coefficient ([1]; 308.15 K): 0.949 ± 0.06 | activity coefficient ([1]; 318.15 K): 0.958 ± 0.06 | activity coefficient ([1]; 328.15 K): 0.966 ± 0.061 | activity coefficient ([1]; 338.15 K): 0.976 ± 0.061 | activity coefficient ([1]; 348.15 K): 0.983 ± 0.062 | activity coefficient ([1]; 358.15 K): 0.992 ± 0.062
Structure (SMILES): c1ccsc1 [thiophene] + CCn1cc[n+](C)c1.N#C[B-](C#N)(C#N)C#N

mass density ([2]; 298.15 K): 1036.27 ± 0.26 kg/m3 | mass density ([2]; 308.15 K): 1028.4 ± 0.25 kg/m3 | mass density ([2]; 318.15 K): 1020.64 ± 0.25 kg/m3 | mass density ([2]; 328.15 K): 1012.97 ± 0.24 kg/m3 | mass density ([2]; 338.15 K): 1005.4 ± 0.24 kg/m3 | mass density ([2]; 348.15 K): 997.91 ± 0.23 kg/m3 | mass density ([2]; 358.15 K): 990.51 ± 0.23 kg/m3
Structure (SMILES): CCn1cc[n+](C)c1.N#C[B-](C#N)(C#N)C#N [1-ethyl-3-methylimidazolium tetracyanoborate]

activity coefficient ([1]; 298.15 K): 0.686 ± 0.046 | activity coefficient ([1]; 308.15 K): 0.707 ± 0.047 | activity coefficient ([1]; 318.15 K): 0.726 ± 0.048 | activity coefficient ([1]; 328.15 K): 0.737 ± 0.049 | activity coefficient ([1]; 338.15 K): 0.753 ± 0.05 | activity coefficient ([1]; 348.15 K): 0.775 ± 0.051 | activity coefficient ([1]; 358.15 K): 0.789 ± 0.051
Structure (SMILES): C1CCOC1 [tetrahydrofuran] + CCn1cc[n+](C)c1.N#C[B-](C#N)(C#N)C#N

activity coefficient ([1]; 298.15 K): 24.9 ± 1.7 | activity coefficient ([1]; 308.15 K): 22.7 ± 1.6 | activity coefficient ([1]; 318.15 K): 21.1 ± 1.4 | activity coefficient ([1]; 328.15 K): 19.4 ± 1.3 | activity coefficient ([1]; 338.15 K): 18 ± 1 | activity coefficient ([1]; 348.15 K): 16.9 ± 1.2 | activity coefficient ([1]; 358.15 K): 15.9 ± 1.1
Structure (SMILES): CC1CCCCC1 [methylcyclohexane] + CCn1cc[n+](C)c1.N#C[B-](C#N)(C#N)C#N

activity coefficient ([1]; 298.15 K): 1.13 ± 0.07 | activity coefficient ([1]; 308.15 K): 1.15 ± 0.07 | activity coefficient ([1]; 318.15 K): 1.17 ± 0.07 | activity coefficient ([1]; 328.15 K): 1.18 ± 0.08 | activity coefficient ([1]; 338.15 K): 1.19 ± 0.08 | activity coefficient ([1]; 348.15 K): 1.2 ± 0.08 | activity coefficient ([1]; 358.15 K): 1.21 ± 0.08
Structure (SMILES): c1ccccc1 [benzene] + CCn1cc[n+](C)c1.N#C[B-](C#N)(C#N)C#N
